Test: recombinant UMI read abundance after kanamycin selection (control-corrected) (log10(CPM+1)); higher = more efficient recombination; extreme values may be limits of the assay; sequences stand for … in AGTGCAGAGAAAATCGGCCAGTTTTCTCTGCCTGCAGTCCGCATGCCGTGGGACCCCTTGGGTTCTAACCTGTTGCCTAGATTTATGCAGCGGACTGCCTTTCTCCCAAAGTGATAAACCGG…AGGTTGGTTTCACT; site = the 11-nt donor
In short: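 Pooled Escherichia coli screen of donor and donor-binding-loop pairs for the IS621 bridge recombinase. Each pair sits with a 12-nt UMI on a plasmid carrying a promoterless kanamycin gene. The library was co-electroporated with a target plasmid encoding a fixed target and T7-inducible recombinase, then plated with IPTG (0.07 mM) plus kanamycin, or unselected, each in two replicates. Recombinant UMIs were PCR-amplified across the donor–target junction and sequenced. Counts became CPM, averaged over replicates, scaled by control-derived factors and reported as log10(CPM+1).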

Row | Sequence | recombinant UMI read abundance (log10)
1 | CTGATACCATGGACCGGTTTTCCCGGTAATCCGTATTTGCT (site CTGGTACCTAG) | 0
2 | CTGATACCATGGACCGGTTTTCCCGGTAATCCGTATTTGCT (site CTGTTACCTAG) | 0
3 | CTGCACACATGGACCGGTTTTCCCGGTAATCCGTATTTGAT (site CTGCACACTAT) | 2.25
4 | CTGCCACCATGGACCGGTTTTCCCGGTAATCCGTATTTGCT (site CTGCAACCTAG) | 0
5 | CTGCCACCATGGACCGGTTTTCCCGGTAATCCGTATTTGCT (site CTGCCACCTAG) | 0.00511
6 | CTGCCACCATGGACCGGTTTTCCCGGTAATCCGTATTTGCT (site CTGCGACCTAG) | 0
7 | CTGCCACCATGGACCGGTTTTCCCGGTAATCCGTATTTGCT (site CTGCTACCTAG) | 0
8 | CTGCCCACATGGACCGGTTTTCCCGGTAATCCGTATTTGCG (site CTGCCCACTCG) | 1.76
9 | CTGCGAGCATGGACCGGTTTTCCCGGTAATCCGTATTTGCA (site CTGCGAGCTTG) | 0.942
10 | CTGCGTTCATGGACCGGTTTTCCCGGTAATCCGTATTTGGA (site CTGCGTTCTTC) | 1.44
11 | CTGCTAACATGGACCGGTTTTCCCGGTAATCCGTATTTGCC (site CTGCTAACTGG) | 2.21
12 | CTGCTACCATGGACCGGTTTTCCCGGTAATCCGTATTTGAT (site CTGCTACCTAA) | 0.0178
13 | CTGCTACCATGGACCGGTTTTCCCGGTAATCCGTATTTGAT (site CTGCTACCTAC) | 0.00934
14 | CTGCTACCATGGACCGGTTTTCCCGGTAATCCGTATTTGAT (site CTGCTACCTAG) | 0.00723
15 | CTGCTACCATGGACCGGTTTTCCCGGTAATCCGTATTTGAT (site CTGCTACCTAT) | 0.00649
16 | CTGCTACCATGGACCGGTTTTCCCGGTAATCCGTATTTGCC (site CTGCTACCTAG) | 0
17 | CTGCTACCATGGACCGGTTTTCCCGGTAATCCGTATTTGCC (site CTGCTACCTCG) | 0.00838
18 | CTGCTACCATGGACCGGTTTTCCCGGTAATCCGTATTTGCC (site CTGCTACCTGG) | 0
19 | CTGCTACCATGGACCGGTTTTCCCGGTAATCCGTATTTGCC (site CTGCTACCTTG) | 0
20 | CTGCTACCATGGACCGGTTTTCCCGGTAATCCGTATTTGCT (site ATGCTACCTAG) | 0.00358
21 | CTGCTACCATGGACCGGTTTTCCCGGTAATCCGTATTTGCT (site CAGCTACCTAG) | 0
22 | CTGCTACCATGGACCGGTTTTCCCGGTAATCCGTATTTGCT (site CCGCTACCTAG) | 0
23 | CTGCTACCATGGACCGGTTTTCCCGGTAATCCGTATTTGCT (site CGGCTACCTAG) | 0
24 | CTGCTACCATGGACCGGTTTTCCCGGTAATCCGTATTTGCT (site CTACTACCTAG) | 0
25 | CTGCTACCATGGACCGGTTTTCCCGGTAATCCGTATTTGCT (site CTCCTACCTAG) | 0

Row | Sequence | recombinant UMI read abundance (log10)
26 | CTGCTACCATGGACCGGTTTTCCCGGTAATCCGTATTTGCT (site CTGATACCTAG) | 0
27 | CTGCTACCATGGACCGGTTTTCCCGGTAATCCGTATTTGCT (site CTGCAACCTAG) | 0
28 | CTGCTACCATGGACCGGTTTTCCCGGTAATCCGTATTTGCT (site CTGCCACCTAG) | 0.00361
29 | CTGCTACCATGGACCGGTTTTCCCGGTAATCCGTATTTGCT (site CTGCGACCTAG) | 0
30 | CTGCTACCATGGACCGGTTTTCCCGGTAATCCGTATTTGCT (site CTGCTAACTAG) | 0.00893
31 | CTGCTACCATGGACCGGTTTTCCCGGTAATCCGTATTTGCT (site CTGCTACCTAA) | 0.0092
32 | CTGCTACCATGGACCGGTTTTCCCGGTAATCCGTATTTGCT (site CTGCTACCTAC) | 0.00952
33 | CTGCTACCATGGACCGGTTTTCCCGGTAATCCGTATTTGCT (site CTGCTACCTAG) | 0
34 | CTGCTACCATGGACCGGTTTTCCCGGTAATCCGTATTTGCT (site CTGCTACCTAT) | 0
35 | CTGCTACCATGGACCGGTTTTCCCGGTAATCCGTATTTGCT (site CTGCTACCTCG) | 0.0163
36 | CTGCTACCATGGACCGGTTTTCCCGGTAATCCGTATTTGCT (site CTGCTACCTGG) | 0
37 | CTGCTACCATGGACCGGTTTTCCCGGTAATCCGTATTTGCT (site CTGCTACCTTG) | 0
38 | CTGCTACCATGGACCGGTTTTCCCGGTAATCCGTATTTGCT (site CTGCTAGCTAG) | 0
39 | CTGCTACCATGGACCGGTTTTCCCGGTAATCCGTATTTGCT (site CTGCTATCTAG) | 1.67
40 | CTGCTACCATGGACCGGTTTTCCCGGTAATCCGTATTTGCT (site CTGCTCCCTAG) | 0.543
41 | CTGCTACCATGGACCGGTTTTCCCGGTAATCCGTATTTGCT (site CTGCTGCCTAG) | 0.038
42 | CTGCTACCATGGACCGGTTTTCCCGGTAATCCGTATTTGCT (site CTGCTTCCTAG) | 0
43 | CTGCTACCATGGACCGGTTTTCCCGGTAATCCGTATTTGCT (site CTGGTACCTAG) | 0
44 | CTGCTACCATGGACCGGTTTTCCCGGTAATCCGTATTTGCT (site CTGTTACCTAG) | 0
45 | CTGCTACCATGGACCGGTTTTCCCGGTAATCCGTATTTGCT (site CTTCTACCTAG) | 0
46 | CTGCTACCATGGACCGGTTTTCCCGGTAATCCGTATTTGCT (site GTGCTACCTAG) | 0
47 | CTGCTACCATGGACCGGTTTTCCCGGTAATCCGTATTTGCT (site TTGCTACCTAG) | 0.00622
48 | CTGCTCTCATGGACCGGTTTTCCCGGTAATCCGTATTTGTA (site CTACTCTCTTA) | 2.71
49 | CTGCTCTCATGGACCGGTTTTCCCGGTAATCCGTATTTGTA (site CTCCTCTCTTA) | 0.876
50 | CTGCTCTCATGGACCGGTTTTCCCGGTAATCCGTATTTGTA (site CTGCTCTCTTA) | 2.98

Row | Sequence | recombinant UMI read abundance (log10)
51 | CTGCTCTCATGGACCGGTTTTCCCGGTAATCCGTATTTGTA (site CTTCTCTCTTA) | 1.06
52 | CTGCTGACATGGACCGGTTTTCCCGGTAATCCGTATTTGAC (site CTGCTGACTGT) | 1.02
53 | CTGCTTGCATGGACCGGTTTTCCCGGTAATCCGTATTTGAT (site CTGCTTGCTAT) | 2.21
54 | CTGGAAACATGGACCGGTTTTCCCGGTAATCCGTATTTGCT (site CTGGAAACTAG) | 2.45
55 | CTGGAAACATGGACCGGTTTTCCCGGTAATCCGTATTTGCT (site CTGGAAACTCG) | 0.534
56 | CTGGAAACATGGACCGGTTTTCCCGGTAATCCGTATTTGCT (site CTGGAAACTGG) | 1.1
57 | CTGGAAACATGGACCGGTTTTCCCGGTAATCCGTATTTGCT (site CTGGAAACTTG) | 0.49
58 | CTGGAAACATGGACCGGTTTTCCCGGTAATCCGTATTTGGA (site CTGGAAACTTA) | 0.993
59 | CTGGAAACATGGACCGGTTTTCCCGGTAATCCGTATTTGGA (site CTGGAAACTTC) | 1.89
60 | CTGGAAACATGGACCGGTTTTCCCGGTAATCCGTATTTGGA (site CTGGAAACTTG) | 0
61 | CTGGAAACATGGACCGGTTTTCCCGGTAATCCGTATTTGGA (site CTGGAAACTTT) | 2.09
62 | CTGGAGACATGGACCGGTTTTCCCGGTAATCCGTATTTGCA (site CTGGAAACTTG) | 2.32
63 | CTGGAGACATGGACCGGTTTTCCCGGTAATCCGTATTTGCA (site CTGGACACTTG) | 2.12
64 | CTGGAGACATGGACCGGTTTTCCCGGTAATCCGTATTTGCA (site CTGGAGACTTG) | 2.66
65 | CTGGAGACATGGACCGGTTTTCCCGGTAATCCGTATTTGCA (site CTGGATACTTG) | 1.03
66 | CTGGCAACATGGACCGGTTTTCCCGGTAATCCGTATTTGCA (site CTGGAAACTTG) | 0
67 | CTGGCAACATGGACCGGTTTTCCCGGTAATCCGTATTTGCA (site CTGGCAACTTG) | 1.01
68 | CTGGCAACATGGACCGGTTTTCCCGGTAATCCGTATTTGCA (site CTGGGAACTTG) | 0
69 | CTGGCAACATGGACCGGTTTTCCCGGTAATCCGTATTTGCA (site CTGGTAACTTG) | 0
70 | CTGGCACCATGGACCGGTTTTCCCGGTAATCCGTATTTGGC (site CTGGCACCTGC) | 0.523
71 | CTGGCTGCATGGACCGGTTTTCCCGGTAATCCGTATTTGCG (site CTGGCTGCTCG) | 0.887
72 | CTGGTACCATGGACCGGTTTTCCCGGTAATCCGTATTTGCT (site CTGATACCTAG) | 0
73 | CTGGTACCATGGACCGGTTTTCCCGGTAATCCGTATTTGCT (site CTGCTACCTAG) | 0
74 | CTGGTACCATGGACCGGTTTTCCCGGTAATCCGTATTTGCT (site CTGGTACCTAG) | 0
75 | CTGGTACCATGGACCGGTTTTCCCGGTAATCCGTATTTGCT (site CTGTTACCTAG) | 0

— the supplement of paper PMC11208160
